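Growth conditions: 96-well plates. Treatment: test compound, 48 hours, 5 concentrations. Analysis: linear interpolation between bracketing concentrations; unreached endpoints set to highest concentration. GI50 marks 50% less growth. TGI marks complete inhibition of growth.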
Assays:
Experiment in all cases: DTP human tumour cell line panel, 48 h
A498 renal = system: A498 renal
OVCAR-3 ovarian = system: OVCAR-3 ovarian
SR leukemia = system: SR leukemia
HCT-15 colon = system: HCT-15 colon
CAKI-1 renal = system: CAKI-1 renal
HCT-116 colon = system: HCT-116 colon
IGROV1 ovarian = system: IGROV1 ovarian
HOP-62 NSCLC = system: HOP-62 NSCLC
MCF7 breast = system: MCF7 breast

SMILES | TGI (A498 renal) | TGI (OVCAR-3 ovarian) | TGI (SR leukemia) | TGI (HCT-15 colon) | TGI (CAKI-1 renal) | TGI (HCT-116 colon) | TGI (IGROV1 ovarian) | TGI (HOP-62 NSCLC) | GI50 (A498 renal) | GI50 (OVCAR-3 ovarian) | GI50 (SR leukemia) | GI50 (HCT-15 colon) | GI50 (CAKI-1 renal) | GI50 (IGROV1 ovarian) | GI50 (HOP-62 NSCLC) | GI50 (MCF7 breast) | TGI (MCF7 breast)
c1ccc(OCc2nnc3n2N=C(c2ccccc2)CS3)cc1 | > 100 µM | > 100 µM | > 100 µM | > 100 µM | > 100 µM | > 100 µM | > 100 µM | > 100 µM | – | – | – | – | – | – | – | – | –
COc1cccc(SSc2cccc(OC)c2C(=O)O)c1C(=O)O | > 100 µM | > 100 µM | > 100 µM | > 100 µM | > 100 µM | > 100 µM | > 100 µM | > 100 µM | – | – | – | – | – | – | – | – | –
COc1cc2ccnc3c(=C(SC)SC)c(=O)c(c1OC)c23 | – | 28.4 µM | – | 29.8 µM | 23.4 µM | – | 47.5 µM | > 100 µM | – | – | – | – | – | – | – | – | –
Cc1c2c(c(C)c3c1[nH]c1ccccc13)CN(C)CC2 | 59.4 µM | 52.7 µM | 87.8 µM | 31 µM | 27.4 µM | 29.4 µM | > 100 µM | > 100 µM | – | – | – | – | – | – | – | – | –
OCCN(CCO)c1cccc(N(CCO)CCO)n1 | > 100 µM | > 100 µM | > 100 µM | > 100 µM | > 100 µM | > 100 µM | – | > 100 µM | – | – | – | – | – | – | – | – | –
CCC1(CN(C)C)CC/C(=C\c2ccc(OC)c(OC)c2)C1=O (stereo not drawn) | > 100 µM | > 100 µM | – | > 100 µM | > 100 µM | > 100 µM | > 100 µM | > 100 µM | – | – | – | – | – | – | – | – | –
Cc1ccc(NC(=O)CCc2n[nH]c(=S)o2)cc1 | > 100 µM | > 100 µM | > 100 µM | > 100 µM | > 100 µM | > 100 µM | > 100 µM | > 100 µM | – | – | – | – | – | – | – | – | –
N#Cc1cccc(C=NC23CC4CC(CC(C4)C2)C3)c1 | > 100 µM | > 100 µM | > 100 µM | > 100 µM | > 100 µM | > 100 µM | > 100 µM | > 100 µM | – | – | – | – | – | – | – | – | –
COc1cccc(N2C(=O)C3C4C=C5c6ccccc6N(c6ccccc6)C5(C3C2=O)[C@H]2C(=O)N(c3cccc(OC)c3)C(=O)[C@@H]42)c1 (stereo partly drawn) | > 100 µM | > 100 µM | > 100 µM | > 100 µM | > 100 µM | > 100 µM | > 100 µM | > 100 µM | – | – | – | – | – | – | – | – | –
CC([O-])=C1C(=O)c2ccccc2C1=O.CC([O-])=C1C(=O)c2ccccc2C1=O.CC[O-].CC[O-].[Ti+4] | > 100 µM | > 100 µM | > 100 µM | > 100 µM | > 100 µM | – | > 100 µM | > 100 µM | > 100 µM | > 100 µM | > 100 µM | > 100 µM | 59.5 µM | > 100 µM | > 100 µM | – | –
COC(=O)Cc1cc(=O)[nH]c2c1C(=O)CCC2 | – | > 100 µM | > 100 µM | > 100 µM | – | – | > 100 µM | – | – | – | – | – | – | – | – | – | –
O=C1CCCCC12CCC/C2=N\O (stereo not drawn) | > 100 µM | > 100 µM | > 100 µM | > 100 µM | > 100 µM | > 100 µM | > 100 µM | > 100 µM | – | – | – | – | – | – | – | – | –
O=C1OC(=O)C2C3C=CC(C12)C1C2C=CC2C31 (stereo not drawn) | > 100 µM | – | > 100 µM | – | > 100 µM | > 100 µM | > 100 µM | > 100 µM | – | – | – | – | – | – | – | – | –
O=C(NCCCl)SCCO | > 100 µM | > 100 µM | > 100 µM | > 100 µM | – | > 100 µM | > 100 µM | > 100 µM | – | – | – | – | – | – | – | – | –
N#CC1=C(O)NC(O)=C(C#N)C1c1ccc(C2C(C#N)=C(O)NC(O)=C2C#N)cc1 | > 100 µM | > 100 µM | – | > 100 µM | > 100 µM | > 100 µM | > 100 µM | > 100 µM | – | – | – | – | – | – | – | – | –
Cl.Fc1c[c-]c(-c2ccccn2)c(F)c1.[Pt].c1ccc([PH+](C[PH+](c2ccccc2)c2ccccc2)c2ccccc2)cc1 | 0.721 µM | 0.442 µM | – | – | 0.839 µM | – | – | – | 0.239 µM | 0.184 µM | – | – | 0.266 µM | – | – | 0.198 µM | 1.12 µM
NC(=O)NC1C(C(=O)O)N(Cc2ccccc2)C(=O)N1Cc1ccccc1 (stereo not drawn) | – | > 100 µM | > 100 µM | > 100 µM | > 100 µM | > 100 µM | > 100 µM | > 100 µM | – | – | – | – | – | – | – | – | –
Cn1cc(C(=O)c2ccccc2)cc(C(=O)c2ccccc2)c1=O | – | > 100 µM | > 100 µM | > 100 µM | > 100 µM | – | > 100 µM | > 100 µM | – | – | – | – | – | – | – | – | –
COCCOCCOCCOc1cccc2c1C(=O)c1cccc(OCCOCCOCCOC)c1C2=O | > 100 µM | > 100 µM | – | > 100 µM | > 100 µM | > 100 µM | > 100 µM | > 100 µM | – | – | – | – | – | – | – | – | –
CC(=O)c1ccc(NC(=O)C(=O)C(C#N)CC(C)(C)C=O)cc1 (stereo not drawn) | > 100 µM | > 100 µM | > 100 µM | > 100 µM | > 100 µM | > 100 µM | > 100 µM | > 100 µM | – | – | – | – | – | – | – | – | –
O=c1c2cc3c(cc2c2cccc4c2n1CCC4)OCO3 | – | > 100 µM | 91.3 µM | > 100 µM | > 100 µM | 71.1 µM | > 100 µM | > 100 µM | – | – | – | – | – | – | – | – | –
CC(=O)c1ccc(NC(=O)COC(=O)c2cccc3c(=O)c4ccccc4[nH]c23)cc1 | > 100 µM | 69.4 µM | > 100 µM | – | > 100 µM | 42.8 µM | > 100 µM | 90.7 µM | – | – | – | – | – | – | – | – | –
